How the values were obtained:
D16-FAM·R16 = experiment: anisotropy time-course of D16-FAM·R16 binding, annealing and release; assay type: biochemical; details: 50 nM D16-FAM, 50 nM Hfq hexamer, then 50 nM R16, TNK buffer, 30 °C, three trials
Protocol: (§1) Figure 4. Shortening the CTD increases auto-inhibition by acidic residues. (A) Observed annealing rate constants for 100 nM target RNA and 50 nM molecular beacon with 0–200 nM Hfq hexamer at 30°C, measured by stopped-flow fluorescence. Black, Hfq102; red, Hfq-sCTD; cyan, Hfq65. (B) Fluorescence anisotropy assay for RNA binding and release. In stopped-flow FRET experiments, the dsRNA is released after pairing with its complementary strand ([Panja et al., 2013]; [Santiago-Frangos et al., 2016]). […] Remaining RNA was displaced from Hfq by excess ssDNA (400 nM DNA2). The averages and standard deviations for three trials are plotted for each Hfq variant. […] (D) Annealing of 5 nM ^32P-ChiX sRNA with 30 nM chiP mRNA without Hfq, or with Hfq65, Hfq102 or Hfq-sCTD, as indicated above each lane. Samples were loaded on a native polyacrylamide gel 60 min or 20 s after the components were mixed. […] (E) Fractions of free ChiX (black), ChiX·chiP dsRNA (light grey), ChiX·Hfq·chiP ternary complex (hatched) and ChiX·Hfq binary complex (dark grey) after 4 min of annealing, as analyzed by EMSA (Figure 4—figure supplement 2). […] Annealing of 100 nM Target RNA to 50 nM beacon RNA by Hfq variants was measured by stopped flow fluorescence at 30°C in 1 × TNK buffer. […] The change in fluorescence emission intensity was normalized to the maximum fluorescence within an experiment. […]

Hfq65 = Hfq65 (Escherichia coli, UniProt P0A6X3); details: dsRNA product (D16-FAM·R16) versus ssRNA substrate (D16-FAM)
Protocol: Annealing kinetics of molecular beacon (50 nM) to either Target or Target-A18 RNA (100 nM) by 0–200 nM Hfq hexamer, in 1X TNK (10 mM Tris·HCl pH 7.5, 50 mM NaCl, 50 mM KCl) buffer at 30°C was measured by stopped-flow fluorescence spectroscopy as described previously ([Soper et al., 2011]; [Panja and Woodson, 2012b]). Annealing progress curves were fit to single or double-exponential rate equations.

Target and Target-U6 RNA = experiment: RNA annealing kinetics (molecular beacon with Target and Target-U6), stopped-flow fluorescence; assay type: biochemical; details: 16 nt Target and Target-U6 RNA; 30 °C
Protocol: as §1

Hfq102 = experiment: RNA binding to Hfq102, fluorescence anisotropy; design: species or system E. coli; details: dsRNA product (D16-FAM·R16) versus ssRNA substrate (D16-FAM)

Sequence of Hfq65 (P0A6X3 1-65): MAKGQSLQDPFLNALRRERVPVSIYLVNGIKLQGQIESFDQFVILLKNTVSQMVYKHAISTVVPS

Row | Substance | release of annealed dsRNA (D16-FAM·R16) from Hfq (D16-FAM·R16) | Krel = Kd(P)/Kd(S), Hfq65 (Hfq65) | annealing rate of Hfq65 relative to Hfq102 (Target and Target-U6 RNA) | Krel = Kd(P)/Kd(S), Hfq102 (Hfq102)
1 | Hfq65: truncated E. coli Hfq variant lacking the CTD | a large proportion of the dsRNA remained bound to Hfq65 | 2.3 | about five times faster than full-length Hfq102 | 
2 | Hfq102: full-length E. coli Hfq | most of the annealed dsRNA dissociated from Hfq102 |  |  | 7.5
